Experimental data reported in patent publication US7169815B2, “3-methoxybenzyl thiourea derivatives and improved lipid compositions containing same” (The United States of America as represented by the …, priority 2000, dated 2007).
Converted amounts (≈) assume the structure as drawn. Like-named read-outs stand apart in the source and are kept apart here.

Experiments:
[1] = Oxidative Stability Index (OSI) of refined meadowfoam seed oil plus additives; conditions: 130° C.; for increase in the OSI time: refined meadowfoam seed oil, versus oil with no additives
Excerpt: A presently preferred method of determining oxidative stability of lipids and oils employs the Oxidative Stability Index (OSI), which determines the oxidative stability of an oil by passing air through a sample under stringent temperature control. (Firestone, Oxidative Stability Index (OSI): Official Methods of Recommended Practices of the American Oil Chemists' Society (AOCS), 4th Ed. American Oil Chemists Society, Champaign, Ill., AOCS Official Method Cd 12b-92, 1993.) In this method, a stream of air is passed through the oil sample, which aids in the rapid degradation of the triglyceride into volatile organic acids. The air stream flushes the volatile acids from the oil into a conductivity cell containing water where the acids are solubilized. These acids, once dissolved in the water solution, disassociate into ions, thus changing the conductivity of the water. Therefore, a continuous measure of the conductivity of the cell by computer will indicate when a rapid rise in the conductivity occurs that corresponds to the induction point, oxidative failure of the sample. The time to the induction point is the OSI time. […] Saturated fatty acid methyl ester (FAME) standards commercially available from Alltech Associates (Deerfield, Ill.) may be used to calibrate the OSI determinations.
OSI determinations may be performed on an oxidative stability instrument manufactured by Omnion (Rockland, Mass.) using the AOCS method described in the above-disclosed Firestone reference. Lipid or oil samples may be run at 110° C. and FAMEs may be tested at 90° C., with air flow set at 35 kPa with a resulting velocity of about 140 ml/min. A presently preferred method for determining OSI values is described by T. A. Isbell et al., “Oxidative Stability Index of Vegetable Oils in Binary Mixtures with Meadowfoam Oil,” Industrial Crops and Products 9, 115–123 (1999).
Unless otherwise stated, Oxidative Stability Index (OSI) values were determined on 5.00 ±0.05 g lipid or oil samples in triplicate according to AOCS Official Method Cd 12b-92 (AOCS, 1993) at 90° C., 110° C. and/or 130° C. on an oxidative stability instrument manufactured by Omnion (Rockland, Mass.). Details of the procedure have been published by Isbell et al., “Oxidative Stability Index of Vegetable Oils in Binary Mixtures with Meadowfoam Oil,” Ind. Crops Prod. 9, 115–123 (1999). When compounds of the present invention were added to the lipid or oil sample being tested, the compounds (0.1% to 1.0% by weight) were added to the test lipid or oil (20 g) and dissolved or dispersed at room temperature before triplicate 5.00 g samples of lipid or oil with an added compound of the invention were weighed into the OSI test tube.
The 1,3-di(3-methoxybenzyl) thiourea prepared in Example 3 was mixed at 0.1%, 0.5% or 1.0% with refined meadowfoam seed oil (Lot #CW-4551, The Fanning Corp) and the oxidative stability of the mixtures was compared to that of refined meadowfoam seed oil at 130° C. The OSI times were 49.8 h, 159 h and 172 h, respectively, for the mixtures containing the thiourea compared to an OSI time of 14.9 h for this lot of refined meadowfoam seed oil with no additives at 130° C.
Thus, 1,3-bis(2-methoxyphenyl)-2-thiourea (Aldrich Chem Co.) added at 0. […] Likewise, 1,3-bis(3-methoxyphenyl)-2-thiourea at 0. 1% added to refined meadowfoam oil gave an OSI time of 27.0 h, an […] lower value than for the 1,3-di-(3-methoxybenzyl) thiourea produced in Example 3.

[2] = UVB and UVA molar absorptivities in chloroform; assay type: physicochemical; conditions: 0.01 mg/ml in chloroform
Description: The compounds synthesized in Example 3 were tested to determine their ability to absorb […] UVA light. UV spectra of quantitatively weighed and diluted samples (0.01 mg/ml) in chloroform were scanned from 244–450 nm at 240 nm/min on a Beckman DU 640 spectrophotometer (Beckman Coulter, Inc., Fullerton, Calif.). Amax in the 280–320 nm range was determined and converted to molar absorptivity for the UVB region, and Amax in the 320–400 nm range was determined and converted to molar absorptivity for the UVA region.

[3] = Solubility in refined meadowfoam seed oil (HPLC); assay type: physicochemical; conditions: oil or lipid, thermodynamic from solid, cooled to room temperature overnight
Description: Typical retention times were 7–9 min for the thioureas. Samples were weighed accurately (about 0.1 g) into 1.00 g of refined meadowfoam seed oil and heated to temperature (either 30° C. or 50° C.) for 4 h with occasional shaking. The samples were cooled to room temperature overnight, centrifuged and 0.3 g of the supernatant oil was removed and diluted with 1 ml CHCl3 for testing.

[4] = Decomposition temperature by differential scanning calorimetry; assay type: physicochemical; conditions: DSC, onset of decrease in slope of temperature-heat flow curve; unit not given (scans in ° C.)
Description: A dual cell Perkin Elmer differential scanning calorimeter (PE DSC 7, Norwalk, Conn.) was used to determine the thermal transitions of the compounds. All scans were carried out from 30° C. to 200° C. at a heating and cooling rate of 10° C./minute and 40° C./min, respectively, except for 1-(3-methoxybenzyl)-3-(1-propenyl) thiourea, for which the scans were carried out from 0° C. to 200° C. at a heating rate of 10° C./min, and 1-(3-methoxybenzyl)-3-octadecyl thiourea, for which both the heating and cooling rates were 10° C./min. 1,3-di(3-methoxybenzyl) thiourea and 1-(3-methoxybenzyl)-3-dodecyl thiourea were heated to 300° C., and 1-(3-methoxybenzyl)-3-(4-methoxybenzoyl) thiourea was heated to 250° C. to determine the decomposition temperature. The decomposition temperature was taken as the onset of a decrease in the slope of the temperature-heat flow DSC curve. The first heating curve was recorded in all cases, and liquid nitrogen was used to quench the samples after the first heating.

[5] = Behaviour on addition of water to DMSO solution (sample preparation); assay type: physicochemical; conditions: dissolved in 50 μl DMSO, water added to make 1 mg/ml
Description: Test compounds (1–2 mg) were originally made up at a concentration of 1 mg/ml in artificial seawater, except for water insoluble compounds, which were dissolved in 50 μl of dimethyl sulfoxide (DMSO) prior to adding enough water to make a 1 mg/ml solution. Serial dilutions were performed in 100 μl of seawater in triplicate in the wells of a 96-well microplate to give appropriate concentrations. Control wells for both water and DMSO were included with each experiment. A 100 μl solution of naupli (10–30) was added to each well, and the covered plate was incubated for 24 h at 27° C. The number of non-motile, and the total number of, naupli were counted in each well using a binocular microscope (10×). LC50 values were then calculated by Probit analysis (Finney, D. J., 1971, “Probit Analysis,” 3rd Ed.; University Press: Cambridge [Eng.]).

SMILES: COc1cccc(CNC(=S)NCc2cccc(OC)c2)c1 [1,3-di(3-methoxybenzyl) thiourea]
- OSI Time ([1]; refined meadowfoam seed oil Lot #CW-4551, 0.1% additive): 49.8 h
- OSI Time ([1]; refined meadowfoam seed oil Lot #CW-4551, 0.5% additive): 159 h
- OSI Time ([1]; refined meadowfoam seed oil Lot #CW-4551, 1.0% additive): 172 h
- OSI Time ([1]; refined meadowfoam seed oil plus additive 0.1%): 49.8 h
- OSI Time ([1]; refined meadowfoam seed oil plus additive 0.5%): 159 h
- OSI Time ([1]; refined meadowfoam seed oil plus additive 1.0%): 172 h
- increase in the OSI time ([1]; 0.1% additive): 234%
- increase in the OSI time ([1]; 0.5% additive): 967%
- increase in the OSI time ([1]; 1.0% additive): 1054%
- UVBMAX Molar Absorptivity ([2]; Amax in 280–320 nm): 5367
- UVAMAX Molar Absorptivity ([2]; Amax in 320–400 nm): 0.0
- solubility at 4 h ([3]; heated to 30° C. for 4 h, read-out: Solubility at 30° C.): 2480 µg/mL (≈ 7.84 mM)
- solubility at 4 h ([3]; heated to 50° C. for 4 h, read-out: Solubility at 50° C.): 3520 µg/mL (≈ 11.1 mM)
- Decomposition Temperature [4]: 265 °C
- behaviour upon the addition of water [5]: precipitated out of solution
